Results reported in the NIST ThermoML archive (doi:10.1016/j.jct.2016.03.026).

Experiment: xn = mol fraction of the nth substance listed
Conditions: 273.15 K, Fluid (supercritical or subcritical phases), x1 = 0.97; for mass density: Vibrating tube method

O=C=O [carbon dioxide] + CO
Conditions | mass density [kg/m3]
8000 kPa | 962.72
8025 kPa | 962.8
8050 kPa | 962.97
8075 kPa | 963.13
8100 kPa | 963.21
8125 kPa | 963.38
8150 kPa | 963.54
8175 kPa | 963.7
8200 kPa | 963.78
8225 kPa | 963.95
8250 kPa | 964.11
8275 kPa | 964.23
8300 kPa | 964.35
8325 kPa | 964.52
8350 kPa | 964.68
8375 kPa | 964.76
8400 kPa | 964.93
8425 kPa | 965.04
8450 kPa | 965.19
8475 kPa | 965.34
8500 kPa | 965.5
8525 kPa | 965.6
8550 kPa | 965.74
8575 kPa | 965.91
8600 kPa | 966
8625 kPa | 966.15
8650 kPa | 966.32
8675 kPa | 966.46
8700 kPa | 966.56
8725 kPa | 966.72
8750 kPa | 966.89
8775 kPa | 966.97
8800 kPa | 967.13
8825 kPa | 967.3
8850 kPa | 967.38
8875 kPa | 967.54
8900 kPa | 967.71
8925 kPa | 967.86
8950 kPa | 967.95
8975 kPa | 968.12
9000 kPa | 968.28
9025 kPa | 968.36
9050 kPa | 968.52
9075 kPa | 968.69
9100 kPa | 968.77
9125 kPa | 968.93
9150 kPa | 969.1
9175 kPa | 969.18
9200 kPa | 969.34
9225 kPa | 969.51
9250 kPa | 969.64
9275 kPa | 969.75
9300 kPa | 969.92
9325 kPa | 970
9350 kPa | 970.16
9375 kPa | 970.32
9400 kPa | 970.45
9425 kPa | 970.57
9450 kPa | 970.67
9475 kPa | 970.81
9500 kPa | 970.97
9525 kPa | 971.14
9550 kPa | 971.22
9575 kPa | 971.39
9600 kPa | 971.55
9625 kPa | 971.63
9650 kPa | 971.74
9675 kPa | 971.88
9700 kPa | 972.04
9725 kPa | 972.2
9750 kPa | 972.29
9775 kPa | 972.43
9800 kPa | 972.53
9825 kPa | 972.69
9850 kPa | 972.82
9875 kPa | 972.94
9900 kPa | 973.1
9925 kPa | 973.18
9950 kPa | 973.35
9975 kPa | 973.43
10000 kPa | 973.59
10025 kPa | 973.69
10050 kPa | 973.84
10075 kPa | 973.99
10100 kPa | 974.08
10125 kPa | 974.24
10150 kPa | 974.34
10175 kPa | 974.49
10200 kPa | 974.57
10225 kPa | 974.73
10250 kPa | 974.82
10275 kPa | 974.98
10300 kPa | 975.11
10325 kPa | 975.22
10350 kPa | 975.36
10375 kPa | 975.47
10400 kPa | 975.63
10425 kPa | 975.71
10450 kPa | 975.88
10475 kPa | 975.96
10500 kPa | 976.12
10525 kPa | 976.2
10550 kPa | 976.37
10575 kPa | 976.45
10600 kPa | 976.61
10625 kPa | 976.69
10650 kPa | 976.86
10675 kPa | 976.94
10700 kPa | 977.1
10725 kPa | 977.18
10750 kPa | 977.35
10775 kPa | 977.48
10800 kPa | 977.59
10825 kPa | 977.76
10850 kPa | 977.84
10875 kPa | 978
10900 kPa | 978.08
10925 kPa | 978.2
10950 kPa | 978.33
10975 kPa | 978.49
11000 kPa | 978.57
11025 kPa | 978.7
11050 kPa | 978.82
11075 kPa | 978.97
11100 kPa | 979.06
11125 kPa | 979.16
11150 kPa | 979.3
11175 kPa | 979.46
11200 kPa | 979.55
11225 kPa | 979.71
11250 kPa | 979.8
11275 kPa | 979.94
11300 kPa | 980.04
11325 kPa | 980.16
11350 kPa | 980.29
11375 kPa | 980.39
11400 kPa | 980.53
11425 kPa | 980.69
11450 kPa | 980.78
11475 kPa | 980.89
11500 kPa | 981.02
11525 kPa | 981.13
11550 kPa | 981.26
11575 kPa | 981.37
11600 kPa | 981.51
11625 kPa | 981.62
11650 kPa | 981.75
11675 kPa | 981.86
11700 kPa | 982
11725 kPa | 982.08
11750 kPa | 982.24
11775 kPa | 982.36
11800 kPa | 982.49
11825 kPa | 982.57
11850 kPa | 982.74
11875 kPa | 982.81
11900 kPa | 982.98
11925 kPa | 983.06
11950 kPa | 983.22
11975 kPa | 983.3
12000 kPa | 983.47
12025 kPa | 983.55
12050 kPa | 983.69
12075 kPa | 983.79
12100 kPa | 983.94
12125 kPa | 984.04
12150 kPa | 984.12
12175 kPa | 984.29
12200 kPa | 984.37
12225 kPa | 984.53
12250 kPa | 984.61
12275 kPa | 984.74
12300 kPa | 984.86
12325 kPa | 984.94
12350 kPa | 985.1
12375 kPa | 985.18
12400 kPa | 985.35
12425 kPa | 985.43
12450 kPa | 985.59
12475 kPa | 985.67
12500 kPa | 985.78
12525 kPa | 985.92
12550 kPa | 986
12575 kPa | 986.16
12600 kPa | 986.24
12625 kPa | 986.39
12650 kPa | 986.49
12675 kPa | 986.57
12700 kPa | 986.65
12725 kPa | 986.81
12750 kPa | 986.89
12775 kPa | 987.06
12800 kPa | 987.14
12825 kPa | 987.27
12850 kPa | 987.38
12875 kPa | 987.47
12900 kPa | 987.63
12925 kPa | 987.71
12950 kPa | 987.8
12975 kPa | 987.96
13000 kPa | 988.04
13025 kPa | 988.15
13050 kPa | 988.28
13075 kPa | 988.39
13100 kPa | 988.53
13125 kPa | 988.61
13150 kPa | 988.76
13175 kPa | 988.85
13200 kPa | 988.93
13225 kPa | 989.1
13250 kPa | 989.18
13275 kPa | 989.28
13300 kPa | 989.42
13325 kPa | 989.5
13350 kPa | 989.67
13375 kPa | 989.75
13400 kPa | 989.83
13425 kPa | 989.98
13450 kPa | 990.07
13475 kPa | 990.16
13500 kPa | 990.32
13525 kPa | 990.4
13550 kPa | 990.48
13575 kPa | 990.65
13600 kPa | 990.73
13625 kPa | 990.86
13650 kPa | 990.97
13675 kPa | 991.05
13700 kPa | 991.22
13725 kPa | 991.3
13750 kPa | 991.4
13775 kPa | 991.51
13800 kPa | 991.62
13825 kPa | 991.75
13850 kPa | 991.87
13875 kPa | 991.95
13900 kPa | 992.09
13925 kPa | 992.19
13950 kPa | 992.27
13975 kPa | 992.38
14000 kPa | 992.52
14025 kPa | 992.6

Conditions | speed of sound [m/s]
10000 kPa, Frequency=5 MHz, Pulse-echo method | 634.7
